According to PubChem BioAssay (NCI):
Values joined by “and” are separate entries in the source; they are usually repeats but may differ in a detail not shown here. Equal values may be shown once.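 Following 48 hours of exposure in 96-well plates, responses at five concentrations were used to interpolate endpoints linearly. GI50 marks 50% less growth. TGI is the concentration that stops growth completely.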

Columns and labels:
Assay in all cases: DTP human tumour cell line panel, 48 h
IGROV1 ovarian = system: IGROV1 ovarian
NCI-H460 lung = system: NCI-H460 lung
EKVX NSCLC = system: EKVX NSCLC
SF-539 CNS = system: SF-539 CNS
SW-620 colon = system: SW-620 colon
RXF 393 renal = system: RXF 393 renal
HOP-92 NSCLC = system: HOP-92 NSCLC
SR leukemia = system: SR leukemia
HT29 colon = system: HT29 colon
M14 melanoma = system: M14 melanoma

| Structure (SMILES) | TGI (IGROV1 ovarian) | TGI (NCI-H460 lung) | TGI (EKVX NSCLC) | TGI (SF-539 CNS) | TGI (SW-620 colon) | TGI (RXF 393 renal) | TGI (HOP-92 NSCLC) | TGI (SR leukemia) | GI50 (IGROV1 ovarian) | GI50 (NCI-H460 lung) | GI50 (HT29 colon) | TGI (HT29 colon) | GI50 (SF-539 CNS) | GI50 (SW-620 colon) | GI50 (RXF 393 renal) | GI50 (M14 melanoma) | TGI (M14 melanoma) | GI50 (HOP-92 NSCLC) | GI50 (EKVX NSCLC) | GI50 (SR leukemia) |
| --- | --- | --- | --- | --- | --- | --- | --- | --- | --- | --- | --- | --- | --- | --- | --- | --- | --- | --- | --- | --- |
| CC(=O)O[C@H]1C(=O)[C@]2(C)[C@@H](OC(=O)OCC(O)CO)C[C@H]3OC[C@@]3(OC(C)=O)[C@H]2[C@H](OC(=O)c2ccccc2)[C@]2(O)C[C@H](OC(=O)[C@H](O)[C@@H](NC(=O)c3ccccc3)c3ccccc3)C(C)=C1C2(C)C (stereo partly specified) | > 57.7 µM | 27.6 µM | > 100 µM | < 0.01 µM | 22.1 µM | 1.04 µM | > 85.3 µM | 15.8 µM |  |  |  |  |  |  |  |  |  |  |  |  |
| CC(C)(C)CC(C)(C)Cc1ccc(OCCOCC[N+](C)(C)Cc2ccccc2)cc1 | 2.86 µM | 3.45 µM |  | 3.21 µM | 3.35 µM | 3 µM | 2.56 µM |  | 1.33 µM | 1.8 µM | 1.5 µM | 3.1 µM | 1.7 µM | 1.64 µM | 1.42 µM | 1.42 µM | 2.88 µM | 1.23 µM |  |  |
| O=C(CCN1CCCC1)Nc1ccc2c(NCCCCc3ccccc3)c3ccccc3nc2c1 |  | 1.76 µM | 2.73 µM | 2.84 µM | 1.86 µM | 2.18 µM | 2.32 µM |  |  | 0.53 µM |  |  | 1.44 µM | 0.534 µM | 0.802 µM |  |  | 1.06 µM | 1.39 µM |  |
| COc1cc(-c2ccc(-c3ccc(C(=N)N)s3)s2)cc(OC)c1OC |  | 3.64 µM | 4.85 µM | 3.02 µM |  | 3.39 µM |  |  |  | 1.99 µM |  |  | 1.58 µM |  | 1.66 µM |  |  |  | 1.92 µM |  |
| N#Cc1ccc(Nc2nc3nc[nH]c3c(=O)[nH]2)cc1 | > 100 µM | > 100 µM | > 100 µM | > 100 µM | > 100 µM |  | > 100 µM | > 100 µM |  |  |  | > 100 µM |  |  |  |  | > 100 µM |  |  |  |
| NC(=O)c1cc2ccccc2c(N=Nc2ccccc2)c1O | > 100 µM |  | > 100 µM |  | > 100 µM | > 100 µM | > 100 µM | > 100 µM |  |  |  | > 100 µM |  |  |  |  | > 100 µM |  |  |  |
| CN1CCN(c2ccc3nc(-c4ccc(OCCCN5C(=O)c6cccc7cccc(c67)C5=O)cc4)[nH]c3c2)CC1 | 66.1 µM |  |  |  | 3.44 µM | 41.7 µM | 3.29 µM | 5.94 µM | 21.8 µM |  |  |  |  | 1.83 µM | 10 µM |  |  | 1.66 µM |  | 2.69 µM |
| Cc1c2cc[n+](C)cc2c(COC2OC(CO)C(O)C2O)c2c3ccccc3n(C)c12 (stereo unspecified) | > 100 µM | > 100 µM | > 100 µM | > 100 µM | > 100 µM | > 100 µM | > 100 µM |  |  |  |  | > 100 µM |  |  |  |  |  |  |  |  |
| Cc1c2cc[n+](C)cc2c(C)c2c1[nH]c1ccc(O)cc12 | > 100 µM | 24.7 µM | 83.4 µM | 75.2 µM | > 100 µM | > 100 µM | 52.4 µM |  |  |  |  | > 81.1 µM |  |  |  |  | 20.5 µM |  |  |  |
| CCP(=O)(CC)C(Cl)(Cl)C(=O)NC | > 100 µM | > 100 µM |  |  | > 100 µM |  | > 100 µM | > 100 µM |  |  |  | > 100 µM |  |  |  |  | > 100 µM |  |  |  |
| C[Si](C)(C)C#C[I+]c1ccccc1 | > 100 µM | > 100 µM | > 100 µM | 79.3 µM |  | > 100 µM | > 100 µM |  |  |  |  | > 100 µM |  |  |  |  | 85.9 µM |  |  |  |
| COc1cccc2c1C(=O)c1c(O)c3c(c(O)c1C2=O)C[C@@](O)(C(C)=O)C[C@@H]3OC1CC(N)C(O)C(C)O1 (stereo partly specified) |  |  |  |  |  |  |  | 0.239 µM and 0.908 µM | < 0.0374 µM |  | 0.0246 µM |  |  |  | 0.0602 µM | 0.0487 µM |  | < 0.0104 µM | 0.266 µM |  |
| CCOC(=O)c1c(NC(=S)NCc2ccccc2)sc2c1CCN(C)C2 | > 100 µM | > 100 µM | > 100 µM | > 100 µM |  |  |  |  |  |  |  | > 100 µM |  |  |  |  | > 100 µM |  |  |  |
